Data as given in patent publication US20260176320A1, “MODULATORS OF G-PROTEIN COUPLED RECEPTORS” (priority 2018, published 2026).
Numbered stars: 1 amine (or outer) side, 2 acyl side, 3 side chain; on linkers, the order of the positions; unused ones are H or OH. Square brackets hold non-standard residues; d marks the D form. Side chains are listed from the residue outwards. Peptide text beside a SMILES is read from it. * marks the point of attachment. X8 = O=C([C@@H](Cc1nn[nH]n1)N[*:1])[*:2]; γGlu = O=C(O)[C@H](CCC(=O)[*:2])N[*:1]; X2 = O=C(CSCC(=O)*)NCCN1C(=O)CSC1=O; Palmitoyl = CCCCCCCCCCCCCCCC(=O)*; X6 = O=C(CSCC(=O)*)NCCN1CCCCC1=O; Aib = CC(C)(N)C(=O)O

Key:
[1] = molecular target: GLP-1R (Homo sapiens, UniProt P43220); experiment: HitHunter cAMP assay (GLP-1R); format: cell-based; conditions: Table 3A, cAMP; for Emax: read-out: (Emax) GLP-1R; for EC50: read-out: EC50 GLP-1R/nM
Outline: (§1)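 Suspension cells expressing each receptor (10,000 per well) in HBSS with 10 mM HEPES, 625 μM IBMX and 0.2% BSA were treated with a 22-point 2-fold agonist series in duplicate for 30 minutes at room temperature. cAMP was detected by antibody immunocompetition with luminescence read after overnight incubation.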

[2] = molecular target: T1, GIP-R (Homo sapiens, UniProt P48546); experiment: HitHunter cAMP assay (GIP-R); format: cell-based; conditions: Table 3A, cAMP; for Emax: read-out: (Emax) GIP-R; for EC50: read-out: EC50 GIP-R/nM
T1 sequence (P48546 22-466): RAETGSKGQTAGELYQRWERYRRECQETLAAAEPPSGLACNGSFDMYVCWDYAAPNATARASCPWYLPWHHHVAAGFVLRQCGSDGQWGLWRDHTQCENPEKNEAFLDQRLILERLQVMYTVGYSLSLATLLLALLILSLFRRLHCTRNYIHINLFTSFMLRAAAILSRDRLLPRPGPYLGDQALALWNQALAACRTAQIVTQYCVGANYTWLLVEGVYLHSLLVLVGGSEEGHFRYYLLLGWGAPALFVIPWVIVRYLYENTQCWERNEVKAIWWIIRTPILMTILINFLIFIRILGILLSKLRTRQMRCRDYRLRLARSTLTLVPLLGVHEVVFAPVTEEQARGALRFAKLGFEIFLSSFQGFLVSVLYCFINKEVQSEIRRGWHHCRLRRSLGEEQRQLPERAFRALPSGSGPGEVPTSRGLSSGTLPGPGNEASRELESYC
Outline: as §1

GLP-1R, sequence (P43220 24-463): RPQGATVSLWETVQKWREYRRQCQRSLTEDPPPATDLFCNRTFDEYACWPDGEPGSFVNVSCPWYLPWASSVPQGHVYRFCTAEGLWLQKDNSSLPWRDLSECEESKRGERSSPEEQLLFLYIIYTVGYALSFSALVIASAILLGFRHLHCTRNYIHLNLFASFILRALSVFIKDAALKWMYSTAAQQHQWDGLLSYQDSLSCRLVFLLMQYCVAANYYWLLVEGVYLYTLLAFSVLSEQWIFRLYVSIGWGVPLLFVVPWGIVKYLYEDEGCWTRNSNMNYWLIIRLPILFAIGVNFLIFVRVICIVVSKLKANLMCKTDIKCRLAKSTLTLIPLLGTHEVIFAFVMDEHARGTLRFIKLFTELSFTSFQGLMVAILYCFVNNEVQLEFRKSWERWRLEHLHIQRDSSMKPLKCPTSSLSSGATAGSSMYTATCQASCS

| SMILES | Emax [1] [%] | EC50 [1] [nM] | Emax [2] [%] | EC50 [2] [nM] |
| --- | --- | --- | --- | --- |
| CCCCCCCCCCCCCCCC(=O)N[C@@H](CCC(=O)NCCCC[C@H](NC(=O)CNC(=O)[C@H](CCCNC(=N)N)NC(=O)CNC(=O)[C@H](C)NC(=O)[C@H](CC(C)C)NC(=O)[C@H](CC(C)C)NC(=O)[C@H](Cc1c[nH]c2ccccc12)NC(=O)[C@H](CC(N)=O)NC(=O)[C@@H](NC(=O)[C@H](Cc1ccccc1)NC(=O)[C@H](CCC(=O)O)NC(=O)C(C)(C)NC(=O)[C@H](C)NC(=O)[C@H](C)NC(=O)[C@H](CCC(N)=O)NC(=O)[C@H](CCCCN)NC(=O)[C@H](CC(=O)O)NC(=O)[C@H](CC(C)C)NC(=O)[C@H](Cc1ccc(O)cc1)NC(=O)[C@@H](NC(=O)[C@H](CO)NC(=O)[C@H](Cc1ccc(O)cc1)NC(=O)[C@H](CC(=O)O)NC(=O)[C@H](CO)NC(=O)[C@@H](NC(=O)[C@H](Cc1ccccc1)NC(=O)[C@@H](NC(=O)CNC(=O)[C@H](CCC(=O)O)NC(=O)CSCC(=O)NCCN1C(=O)CSC1=O)[C@@H](C)O)[C@@H](C)O)[C@@H](C)CC)C(C)C)C(=O)NCC(=O)N1CCC[C@H]1C(=O)N[C@@H](CO)C(=O)N[C@@H](CO)C(=O)NCC(=O)N[C@@H](C)C(=O)N1CCC[C@H]1C(=O)N1CCC[C@H]1C(=O)N1CCC[C@H]1C(=O)N[C@@H](CO)C(N)=O)C(=O)O [Compound 198] (X2-EGTFTSDYSIYLDKQAA[Aib]EFVNWLLAGRGK([γGlu-Palmitoyl])GPSSGAPPPS-NH2) | 95 | 10 to 100 | 81 | 10 to 100 |
| CCCCCCCCCCCCCCCC(=O)N[C@@H](CCC(=O)NCCCC[C@H](NC(=O)[C@H](CO)NC(=O)[C@@H]1CCCN1C(=O)[C@@H]1CCCN1C(=O)[C@@H]1CCCN1C(=O)[C@H](C)NC(=O)CNC(=O)[C@H](CO)NC(=O)[C@H](CO)NC(=O)[C@@H]1CCCN1C(=O)CNC(=O)CNC(=O)[C@H](C)NC(=O)[C@H](CC(C)C)NC(=O)[C@H](CC(C)C)NC(=O)[C@H](Cc1c[nH]c2ccccc12)NC(=O)[C@H](CC(N)=O)NC(=O)[C@@H](NC(=O)[C@H](Cc1ccccc1)NC(=O)[C@H](CCC(=O)O)NC(=O)C(C)(C)NC(=O)[C@H](C)NC(=O)[C@H](C)NC(=O)[C@H](CCC(N)=O)NC(=O)[C@H](CCCCN)NC(=O)[C@H](CC(=O)O)NC(=O)[C@H](CC(C)C)NC(=O)[C@H](Cc1ccc(O)cc1)NC(=O)[C@@H](NC(=O)[C@H](CO)NC(=O)[C@H](Cc1ccc(O)cc1)NC(=O)[C@H](CC(=O)O)NC(=O)[C@H](CO)NC(=O)[C@@H](NC(=O)[C@H](Cc1ccccc1)NC(=O)[C@@H](NC(=O)CNC(=O)[C@H](CCC(=O)O)NC(=O)CSCC(=O)NCCN1C(=O)CSC1=O)[C@@H](C)O)[C@@H](C)O)[C@@H](C)CC)C(C)C)C(=O)O)C(=O)O [Compound 199] | 92 | 0.1 to 1 | 78 | 1 to 10 |
| CCCCCCCCCCCCCCCC(=O)N[C@@H](CCC(=O)NCCCC[C@H](NC(=O)[C@H](C)NC(=O)[C@H](C)NC(=O)[C@H](CCC(N)=O)NC(=O)[C@H](CCCCN)NC(=O)[C@H](CC(=O)O)NC(=O)[C@H](CC(C)C)NC(=O)[C@H](Cc1ccc(O)cc1)NC(=O)[C@@H](NC(=O)[C@H](CO)NC(=O)[C@H](Cc1ccc(O)cc1)NC(=O)[C@H](CC(=O)O)NC(=O)[C@H](CO)NC(=O)[C@@H](NC(=O)[C@H](Cc1ccccc1)NC(=O)[C@@H](NC(=O)CNC(=O)[C@H](CCC(=O)O)NC(=O)CSCC(=O)NCCN1C(=O)CSC1=O)[C@@H](C)O)[C@@H](C)O)[C@@H](C)CC)C(=O)N[C@@H](CCC(=O)O)C(=O)N[C@@H](Cc1ccccc1)C(=O)N[C@H](C(=O)N[C@@H](CC(N)=O)C(=O)N[C@@H](Cc1c[nH]c2ccccc12)C(=O)N[C@@H](CC(C)C)C(=O)N[C@@H](CC(C)C)C(=O)N[C@@H](C)C(=O)NCC(=O)NCC(=O)N1CCC[C@H]1C(=O)N[C@@H](CO)C(=O)N[C@@H](CO)C(=O)NCC(=O)N[C@@H](C)C(=O)N1CCC[C@H]1C(=O)N1CCC[C@H]1C(=O)N1CCC[C@H]1C(=O)N[C@@H](CO)C(=O)N[C@@H](CCCCN)C(N)=O)C(C)C)C(=O)O [Compound 200] | 89 | 10 to 100 | 66 | 100 to 1000 |
| CCCCCCCCCCCCCCCC(=O)N[C@@H](CCC(=O)NCCCC[C@H](NC(=O)[C@H](CC(=O)O)NC(=O)[C@H](CO)NC(=O)[C@@H](NC(=O)[C@H](Cc1ccccc1)NC(=O)[C@@H](NC(=O)CNC(=O)[C@H](CCC(=O)O)NC(=O)CSCC(=O)NCCN1C(=O)CSC1=O)[C@@H](C)O)[C@@H](C)O)C(=O)N[C@@H](CO)C(=O)N[C@H](C(=O)N[C@@H](Cc1ccc(O)cc1)C(=O)N[C@@H](CC(C)C)C(=O)N[C@@H](CC(=O)O)C(=O)N[C@@H](CCCCN)C(=O)N[C@@H](CCC(N)=O)C(=O)N[C@@H](C)C(=O)N[C@@H](C)C(=O)NC(C)(C)C(=O)N[C@@H](CCC(=O)O)C(=O)N[C@@H](Cc1ccccc1)C(=O)N[C@H](C(=O)N[C@@H](CC(N)=O)C(=O)N[C@@H](Cc1c[nH]c2ccccc12)C(=O)N[C@@H](CC(C)C)C(=O)N[C@@H](CC(C)C)C(=O)N[C@@H](C)C(=O)NCC(=O)NCC(=O)N1CCC[C@H]1C(=O)N[C@@H](CO)C(=O)N[C@@H](CO)C(=O)NCC(=O)N[C@@H](C)C(=O)N1CCC[C@H]1C(=O)N1CCC[C@H]1C(=O)N1CCC[C@H]1C(=O)N[C@@H](CO)C(=O)N[C@@H](CCCCN)C(N)=O)C(C)C)[C@@H](C)CC)C(=O)O [Compound 201] (X2-EGTFTSDK([γGlu-Palmitoyl])SIYLDKQAA[Aib]EFVNWLLAGGPSSGAPPPSK-NH2) | 99 | 1 to 10 | 105 | 1 to 10 |
| CCCCCCCCCCCCCCCC(=O)N[C@@H](CCC(=O)NCCCC[C@H](NC(=O)[C@H](CO)NC(=O)[C@@H]1CCCN1C(=O)[C@@H]1CCCN1C(=O)[C@@H]1CCCN1C(=O)[C@H](C)NC(=O)CNC(=O)[C@H](CO)NC(=O)[C@H](CO)NC(=O)[C@@H]1CCCN1C(=O)CNC(=O)CNC(=O)[C@H](C)NC(=O)[C@H](CC(C)C)NC(=O)[C@H](CC(C)C)NC(=O)[C@H](Cc1c[nH]c2ccccc12)NC(=O)[C@H](CC(N)=O)NC(=O)[C@@H](NC(=O)[C@H](Cc1ccccc1)NC(=O)[C@H](CCC(=O)O)NC(=O)C(C)(C)NC(=O)[C@H](C)NC(=O)[C@H](C)NC(=O)[C@H](CCC(N)=O)NC(=O)[C@H](CCCCN)NC(=O)[C@H](CC(=O)O)NC(=O)[C@H](CC(C)C)NC(=O)[C@H](Cc1ccc(O)cc1)NC(=O)[C@@H](NC(=O)[C@H](CO)NC(=O)[C@H](Cc1ccc(O)cc1)NC(=O)[C@H](CC(=O)O)NC(=O)[C@H](CO)NC(=O)[C@@H](NC(=O)[C@H](Cc1ccccc1)NC(=O)[C@@H](NC(=O)CNC(=O)[C@H](CCCC(=O)O)NC(=O)CSCC(=O)NCCN1CCCCC1=O)[C@@H](C)O)[C@@H](C)O)[C@@H](C)CC)C(C)C)C(N)=O)C(=O)O [Compound 219] | 89 | 10 to 100 | 75 | 1 to 10 |
| CCCCCCCCCCCCCCCC(=O)N[C@@H](CCC(=O)NCCCC[C@H](NC(=O)[C@H](CO)NC(=O)[C@@H]1CCCN1C(=O)[C@@H]1CCCN1C(=O)[C@@H]1CCCN1C(=O)[C@H](C)NC(=O)CNC(=O)[C@H](CO)NC(=O)[C@H](CO)NC(=O)[C@@H]1CCCN1C(=O)CNC(=O)CNC(=O)[C@H](C)NC(=O)[C@H](CC(C)C)NC(=O)[C@H](CC(C)C)NC(=O)[C@H](Cc1c[nH]c2ccccc12)NC(=O)[C@H](CC(N)=O)NC(=O)[C@@H](NC(=O)[C@H](Cc1ccccc1)NC(=O)[C@H](CCC(=O)O)NC(=O)C(C)(C)NC(=O)[C@H](C)NC(=O)[C@H](C)NC(=O)[C@H](CCC(N)=O)NC(=O)[C@H](CCCCN)NC(=O)[C@H](CC(=O)O)NC(=O)[C@H](CC(C)C)NC(=O)[C@H](Cc1ccc(O)cc1)NC(=O)[C@@H](NC(=O)[C@H](CO)NC(=O)[C@H](Cc1ccc(O)cc1)NC(=O)[C@H](CC(=O)O)NC(=O)[C@H](CO)NC(=O)[C@@H](NC(=O)[C@H](Cc1ccccc1)NC(=O)[C@@H](NC(=O)CNC(=O)[C@H](CCc1nn[nH]n1)NC(=O)CSCC(=O)NCCN1CCCCC1=O)[C@@H](C)O)[C@@H](C)O)[C@@H](C)CC)C(C)C)C(N)=O)C(=O)O [Compound 221] | 95 | 1 to 10 | 68 | 1 to 10 |
| CCCCCCCCCCCCCCCC(=O)N[C@@H](CCC(=O)NCCCC[C@H](NC(=O)[C@H](CO)NC(=O)[C@@H]1CCCN1C(=O)[C@@H]1CCCN1C(=O)[C@@H]1CCCN1C(=O)[C@H](C)NC(=O)CNC(=O)[C@H](CO)NC(=O)[C@H](CO)NC(=O)[C@@H]1CCCN1C(=O)CNC(=O)CNC(=O)[C@H](C)NC(=O)[C@H](CC(C)C)NC(=O)[C@H](CC(C)C)NC(=O)[C@H](Cc1c[nH]c2ccccc12)NC(=O)[C@H](CC(N)=O)NC(=O)[C@@H](NC(=O)[C@H](Cc1ccccc1)NC(=O)[C@H](CCC(=O)O)NC(=O)C(C)(C)NC(=O)[C@H](C)NC(=O)[C@H](C)NC(=O)[C@H](CCC(N)=O)NC(=O)[C@H](CCCCN)NC(=O)[C@H](CC(=O)O)NC(=O)[C@H](CC(C)C)NC(=O)[C@H](Cc1ccc(O)cc1)NC(=O)[C@@H](NC(=O)[C@H](CO)NC(=O)[C@H](Cc1ccc(O)cc1)NC(=O)[C@H](CC(=O)O)NC(=O)[C@H](CO)NC(=O)[C@@H](NC(=O)[C@H](Cc1ccccc1)NC(=O)[C@@H](NC(=O)CNC(=O)[C@@H](Cc1nn[nH]n1)NC(=O)CSCC(=O)NCCN1CCCCC1=O)[C@@H](C)O)[C@@H](C)O)[C@@H](C)CC)C(C)C)C(N)=O)C(=O)O [Compound 224] (X6-[X8]GTFTSDYSIYLDKQAA[Aib]EFVNWLLAGGPSSGAPPPSK([γGlu-Palmitoyl])-NH2) | 98 | 0.1 to 1 | 76 | 10 to 100 |
